Laboratory results taken from ChEMBL document CHEMBL1201862, “PubChem BioAssay data set” (2004).
The source made the active and inactive calls. Rule as the data show it, for most assays here: actives have a measured EC50 and inactives only a lower limit.

Key:
[1] = Luminescence Cell-Based Dose Retest to Confirm Inhibitors of Cancer Stem Cells. [Related pubchem assays (depositor defined):AID2717, AID2721]; type: functional; conditions: Homo sapiens
[2] = cytotoxicity toward NIH3T3 fibroblasts, dose response, counter-screen, cell-based, ATP luminescence, mouse fibroblasts (AID 2010); type: functional;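 also: cells exposed to compound for about 90 hours before reading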
[3] = inhibitors of intracellular T. cruzi replication, confirmation, NIH3T3 host cells, beta-gal luminescence (AID 2044); type: functional, cell-based;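 also: intracellular parasites grown in NIH/3T3 mouse fibroblasts as host cells; luminescent beta-galactosidase reporter signal from transgenic T. cruzi replicating inside host cells; inhibitors lower the luminescence signal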
[4] = biological target: T1, Heat shock factor protein 1 (Mus musculus, UniProt P38532); experiment: inhibition of MG132-induced HSE-luciferase signal, confirmation, cell-based, NIH3T3, luminescence, dose retest (AID 2382); type: functional;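 also: NIH3T3 fibroblasts with HSF1-driven luciferase reporter stressed by proteasome inhibitor MG132; luminescence from HSF1-driven luciferase expression after 8 hours of MG132 stress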
T1 sequence (P38532 whole entry): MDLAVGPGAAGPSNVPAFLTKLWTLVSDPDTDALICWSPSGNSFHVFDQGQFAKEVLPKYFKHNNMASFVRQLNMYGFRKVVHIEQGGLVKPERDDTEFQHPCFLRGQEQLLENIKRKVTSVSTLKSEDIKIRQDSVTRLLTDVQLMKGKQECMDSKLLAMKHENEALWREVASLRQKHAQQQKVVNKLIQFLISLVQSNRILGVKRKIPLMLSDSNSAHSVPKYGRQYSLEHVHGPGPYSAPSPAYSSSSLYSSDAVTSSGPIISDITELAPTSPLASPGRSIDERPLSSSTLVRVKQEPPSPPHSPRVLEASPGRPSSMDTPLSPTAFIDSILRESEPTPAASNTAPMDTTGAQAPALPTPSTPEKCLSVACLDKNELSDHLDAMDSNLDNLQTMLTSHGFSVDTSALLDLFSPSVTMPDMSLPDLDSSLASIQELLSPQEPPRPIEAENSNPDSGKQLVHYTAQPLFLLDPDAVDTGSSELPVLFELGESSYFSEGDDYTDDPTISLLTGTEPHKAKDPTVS

[5] = inhibitors of firefly luciferase expression or activity, dose response, H4 neuroglioma cells, luminescence (AID 1990); type: functional, cell-based
[6] = inhibitors of SNCA 5'UTR-driven reporter translation, confirmation, H4 neuroglioma cells, luminescence (AID 1988); type: functional, cell-based
[7] = Luminescence Cell-Based Dose Response HTS to Identify Inhibitors of 5'UTR Stem-Loop Driven Prion Protein mRNA Translation in H4 Neuroglioblastoma Cells. [Related pubchem assays: 1827 (Project Summary), 1813 (Primary HTS)]; type: functional
Cytochrome P450 2C9 = Cytochrome P450 2C9 (Homo sapiens, UniProt P11712)
Cytochrome P450 2C9, sequence (P11712 whole entry): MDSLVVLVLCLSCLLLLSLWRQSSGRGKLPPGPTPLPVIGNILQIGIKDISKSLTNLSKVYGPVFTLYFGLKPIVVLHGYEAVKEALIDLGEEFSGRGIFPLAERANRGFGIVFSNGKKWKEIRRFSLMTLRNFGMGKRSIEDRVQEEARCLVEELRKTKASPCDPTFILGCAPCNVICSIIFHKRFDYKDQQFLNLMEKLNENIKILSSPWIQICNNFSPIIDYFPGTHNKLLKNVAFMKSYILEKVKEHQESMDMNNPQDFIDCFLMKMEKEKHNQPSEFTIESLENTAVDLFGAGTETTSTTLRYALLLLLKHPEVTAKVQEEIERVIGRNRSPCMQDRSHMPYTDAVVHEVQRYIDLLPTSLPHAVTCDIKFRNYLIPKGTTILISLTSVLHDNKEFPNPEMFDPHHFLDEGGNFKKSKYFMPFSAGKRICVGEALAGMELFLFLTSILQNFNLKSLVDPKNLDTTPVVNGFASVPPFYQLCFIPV

Cytochrome P450 3A4 = Cytochrome P450 3A4 (Homo sapiens, UniProt P08684);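 also: CYP3A4 tested as one member of a cytochrome P450 panel screen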
Cytochrome P450 3A4, sequence (P08684 whole entry): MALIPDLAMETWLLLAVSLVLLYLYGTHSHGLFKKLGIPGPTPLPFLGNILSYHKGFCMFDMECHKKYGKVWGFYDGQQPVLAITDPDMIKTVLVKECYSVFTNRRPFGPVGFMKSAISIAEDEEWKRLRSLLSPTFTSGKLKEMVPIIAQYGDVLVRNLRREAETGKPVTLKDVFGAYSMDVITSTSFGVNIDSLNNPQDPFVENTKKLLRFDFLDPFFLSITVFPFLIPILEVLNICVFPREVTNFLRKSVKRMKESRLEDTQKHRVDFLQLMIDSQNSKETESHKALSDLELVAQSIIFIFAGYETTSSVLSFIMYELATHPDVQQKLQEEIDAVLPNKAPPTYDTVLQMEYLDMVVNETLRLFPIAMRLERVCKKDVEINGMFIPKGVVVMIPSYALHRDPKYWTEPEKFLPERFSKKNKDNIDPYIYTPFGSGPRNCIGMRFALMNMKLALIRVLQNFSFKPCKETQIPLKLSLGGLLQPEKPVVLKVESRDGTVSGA

INS1 = experiment: beta cell apoptosis inhibitors, cytokine rescue, dose response, luminescence, retest (AID 449756); type: functional, cell-based; conditions: Rattus norvegicus;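 also: cell death triggered by IL-1 beta plus TNF-alpha plus IFN-gamma mixture; protective hits raise ATP signal compared with cytokine alone wells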
Streptococcus = experiment: Group A Streptococcus viability loss, dose response, counter-screen for streptokinase expression inhibitor project, luminescence, BacTiterGlo (AID 1915); type: functional, organism-based;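 also: potency for reduction of bacterial viability or growth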
[8] = system: Streptococcus sp. 'group A'; experiment: growth inhibition of control SK(-) GAS strain, dose response, counter-screen for streptokinase expression inhibitor project, luminescence, kanamycin, BacTiterGlo, confirmation (AID 1900); type: functional, organism-based

CC/C(NNc1ccccc1)=C1/C(=O)NC(=O)N(c2ccccc2)C1=O
AC50 [1]: 0.828 µM (active)

Clc1ccccc1N1CCN(Cc2c[nH]c3ccccc23)CC1
EC50 [2]: > 60 µM (not active)
EC50 [3]: 1.43 µM (active)

Cc1noc(C)c1C(=O)N1CCC(C(=O)c2ccccc2)CC1
EC50 [4]: > 195 µM (not active)

COc1ccc([C@@H]2[C@@H]3C(=O)N(C(C)(C)C)C(=O)[C@@H]3[C@]3(C)C(=O)N(c4cccc(F)c4)C(=O)N23)cc1
EC50 [5]: > 120 µM (not active)
EC50 [6]: > 120 µM (not active)
EC50 [7]: > 120 µM (not active)

COc1ccc2nc(NC(=O)c3cccc(-c4cc5ccccc5oc4=O)c3)sc2c1
AC50 [1]: 6.73 µM (active)

O=C(c1nn2c(C(F)(F)F)cc(-c3ccco3)nc2c1Br)N1CCCc2ccccc21
EC50 [5]: 8.31 µM (active)
EC50 [6]: 10.2 µM (active)
EC50 [7]: 13.8 µM (active)

Cc1cc(C)n(-c2ccc(NC(=O)C3CCCCN3C(=O)c3ccoc3C)cc2)n1 (stereo not drawn)
EC50 [4]: > 195 µM (not active)

CCn1c(C)c(C)c2cc(C(=O)N3CCN(c4cccc(C)c4C)CC3)ccc21
AC50 [1]: 4.18 µM (active)

O=C(N1CCCCC1)N1CCN(S(=O)(=O)c2ccccc2)CC1
EC50 [4]: 32.8 µM (active)

O=C(Nc1cccnc1Cl)c1cc([N+](=O)[O-])ccc1Cl
EC50 [2]: > 60 µM (not active)
EC50 [3]: > 60 µM (not active)

N#Cc1c(N2CCOCC2)nc(-c2ccco2)c2c1CCCC2
EC50 [5]: 21.5 µM (active)
EC50 [6]: > 120 µM (not active)
EC50 [7]: 18.5 µM (active)

CC/C(NNc1ccccc1)=C1/C(=O)NC(=O)N(c2ccc(OC)cc2)C1=O
AC50 [1]: 0.769 µM (active)

O=C(C1=C[C@H](c2ccc(C(F)(F)F)cc2)C[C@H](OCCCCO)O1)N1CCN(Cc2ccc3c(c2)OCO3)CC1
EC50 [4]: > 195 µM (not active)

CC(=O)NC(=S)Nc1cccc(S(=O)(=O)NC2=NCCC2)c1
EC50 [4]: > 195 µM (not active)

CN(Cc1ccccc1)CC(O)COc1ccc(CNCCc2ccncc2)cc1 (stereo not drawn)
EC50 [2]: > 60 µM (not active)
EC50 [3]: 0.9 µM (active)

COc1cc(CNCCN2CCOCC2)ccc1OCc1ccccc1Cl
AC50 (Cytochrome P450 2C9): 7.94 µM (inconclusive)

Cc1cccc(Nc2c([N+](=O)[O-])cc(C(=O)N3CC(=O)Nc4ccccc43)cc2[N+](=O)[O-])c1
EC50 [2]: > 60 µM (not active)
EC50 [3]: 0.518 µM (active)

CC(C)C(NC(=O)C12CC3CC(CC(C3)C1)C2)C(=O)N/N=C/C1=C(N2CCOCC2)C(=C\c2cccc([N+](=O)[O-])c2)/CC1 (stereo not drawn)
EC50 [2]: > 60 µM (not active)
EC50 [3]: 2.16 µM (active)

CCOCC(=O)Nc1cc(C(=O)Nc2cccc(C)c2C)ccc1Cl
AC50 (Cytochrome P450 3A4): 25.1 µM (inconclusive)

CN1CCN(NC(=O)c2ccc(S(=O)(=O)N3CCCCCC3)cc2)CC1
EC50 [2]: > 60 µM (not active)
EC50 [3]: 0.247 µM (active)

Cc1ccc(C)c(NC(=O)c2ccccc2NS(=O)(=O)c2cc([N+](=O)[O-])ccc2C)c1
AC50 [1]: 1.19 µM (active)
AC50 (INS1): 3.76 µM (active)

Cc1ccc(-n2nc(C)c3c(C)c(CCC(=O)NCC4CCCO4)c(=O)n(C)c32)cc1 (stereo not drawn)
EC50 [2]: > 60 µM (not active)
EC50 [3]: 5.19 µM (active)

O=C(NCCS(=O)(=O)N1CCN(c2ccc(F)cc2)CC1)c1ccc(Br)o1
EC50 [5]: > 120 µM (not active)
EC50 [6]: > 120 µM (not active)
EC50 [7]: > 120 µM (not active)

COC(=O)N/N=C/c1ccc(/C=N/NC(=O)OC)cc1
EC50 [4]: > 195 µM (not active)

COc1ccc(OC)c(NC(=O)CSc2nnc(-c3cccnc3)s2)c1
AC50 (INS1): 3.66 µM (active)

CCC(C)(C)n1nnnc1C(c1cc2ccc(OC)cc2nc1O)N1CCc2ccccc2C1 (stereo not drawn)
EC50 [2]: 4.98 µM (active)
EC50 [3]: 1.91 µM (active)

Cn1ccnc1C1CCCCN1C(=O)c1cc(COc2ccc(F)cc2Cl)on1 (stereo not drawn)
EC50 [4]: > 195 µM (not active)

Cc1ccc(S(=O)(=O)N2CCC(C(=O)N[C@@H](Cc3ccccc3)C(=O)O)CC2)cc1
EC50 [4]: > 195 µM (not active)

O=C(CC12CC3CC(CC(C3)C1)C2)NC(=S)Nc1ccc(CN2CCOCC2)cc1
EC50 [2]: 9.26 µM (active)
EC50 [3]: 1.51 µM (active)

CCOc1ccc(-n2nc3ccc(NC(=O)c4ccc5c(c4)OCCO5)cc3n2)cc1
EC50 [5]: > 120 µM (not active)
EC50 [6]: 12.7 µM (active)
EC50 [7]: 72.6 µM (active)

CCCCN(C)CCNC(=O)c1cc2c(-c3ccccc3F)nn(C)c2s1
AC50 (INS1): > 260 µM (inactive)
EC50 [4]: > 195 µM (not active)

CCCCn1c(C2CCCCC2)nc2cc3nc(O)c(C(C)C)nc3cc21
AC50 [1]: 1.23 µM (active)

Cc1ccc(NCc2ccc(C)s2)cc1
EC50 [2]: > 60 µM (not active)
EC50 [3]: 2.13 µM (active)

CS(=O)(=O)n1nc(-c2cccnc2)nc1NCc1ccccc1
EC50 [5]: > 120 µM (not active)
EC50 [6]: > 120 µM (not active)
EC50 [7]: > 120 µM (not active)

CCCn1c2c(c(O)c(C(=O)NCc3ccccc3)c1=O)CCCC2
AC50 (Cytochrome P450 2C9): 20 µM (inconclusive)

COc1ccc(N(CC(=O)NC2CCCCCCC2)S(=O)(=O)c2c(C)nn(C)c2C)cc1
EC50 [4]: > 195 µM (not active)

C=C(C)COc1ccc2c(c1)CCC1C2CC[C@]2(C)C(=O)/C(=N/O)CC12 (stereo partly drawn)
AC50 (Cytochrome P450 2C9): 3.16 µM (inconclusive)

Cn1c(NCc2cccnc2)nc2c1c(=O)n(Cc1ccccc1F)c(=O)n2C
EC50 [5]: 18.5 µM (active)
EC50 [6]: > 120 µM (not active)
EC50 [7]: > 120 µM (not active)

COCCCN=C(S)NN=C(S)Nc1cccc(Cl)c1
EC50 (Streptococcus): > 150 µM (not active)
EC50 [8]: > 150 µM (not active)

Cc1ccc(Cl)cc1N=C(S)N(Cc1cccnc1)Cc1ccccc1Cl
EC50 [2]: > 60 µM (not active)
EC50 [3]: 0.554 µM (active)

c1ccc(Cn2c[n+](Cc3ccccc3)cn2)cc1
EC50 [4]: > 195 µM (not active)

O=C(c1ccccc1)c1cc(F)c(N2CCOCC2)cc1Cl
AC50 (Cytochrome P450 3A4): 17.8 µM (inconclusive)

COc1cccc2s/c(=N/C(=O)CS(=O)(=O)c3ccc(F)cc3)n(C)c12
EC50 [2]: > 60 µM (not active)
EC50 [3]: 1.2 µM (active)

CC(=O)c1cccc(/N=c2\scc(-c3ccc(S(=O)(=O)N4CCOCC4)cc3)n2CCO)c1
AC50 (INS1): 2.5 µM (active)

COc1cccc(-c2cc(NCCc3c[nH]c4ccc(OC)cc34)ncn2)c1
AC50 (Cytochrome P450 2C9): 1.58 µM (inconclusive)

Nc1nnc(SCCOc2cccc(Br)c2)s1
AC50 (Cytochrome P450 2C9): 15.8 µM (inconclusive)

Cc1cc(C)c2nc(C(F)(F)F)c(C#N)c(N)c2c1
EC50 [4]: 3.15 µM (active)

O=C1C2CCCN2C(c2ccc(F)cc2)N1c1nccs1 (stereo not drawn)
AC50 (Cytochrome P450 2C9): 35.5 µM (inconclusive)
AC50 (Cytochrome P450 3A4): 22.4 µM (inconclusive)

C/C(=N/Cc1cccc(Cl)c1)c1nc(-c2ccco2)oc1O
AC50 [1]: 1.08 µM (active)

O=C(CCNC(=O)c1ccccc1Cl)Nc1nc(-c2ccc3ccccc3c2)cs1
EC50 [2]: > 60 µM (not active)
EC50 [3]: 2.02 µM (active)

O=C(CSc1nc2ccccc2n1S(=O)(=O)c1ccccc1)N1CCCCC1
EC50 [4]: > 195 µM (not active)

CCOc1ccc(-c2cc(CCCC(=O)N3CCN(c4ccc(OC)cc4)CC3)no2)cc1
EC50 [5]: > 120 µM (not active)
EC50 [6]: 28.1 µM (active)
EC50 [7]: > 120 µM (not active)

CCOC(=O)Cc1csc(NC(=O)c2c(O)c3ccccc3n(CC(C)C)c2=O)n1
EC50 [5]: > 120 µM (not active)
EC50 [6]: 11.1 µM (active)
EC50 [7]: > 120 µM (not active)

CC(C)c1nc(N2CCOCC2)c(C#N)c2c1COC(C)(C)C2
EC50 [5]: 33.6 µM (active)
EC50 [6]: > 120 µM (not active)
EC50 [7]: > 120 µM (not active)

Cn1c(-c2ccsc2)c(-c2cccs2)c2cc(Br)ccc21
AC50 [1]: 3.15 µM (active)

CN(C)Cc1ccccc1-c1ccc2ncnc(N(C)Cc3ccco3)c2c1
AC50 (Cytochrome P450 3A4): 15.8 µM (inconclusive)
